# Columns and labels:
# Type in all cases: in vivo
# [1] = tested on: silverleaf whitefly (Bemisia tabaci); assay: Foliar spray bioefficacy, first assay (3 applications); conditions: for # of Individuals per Leaf: Adults, 1st Appl. / # of Individuals per Leaf: Eggs, 1st Appl. / # of Individuals per Leaf: Nymphs, 1st Appl.: 7 days after first application; for # of Individuals per Leaf: Adults, 2nd Appl. / # of Individuals per Leaf: Eggs, 2nd Appl. / # of Individuals per Leaf: Nymphs, 2nd Appl.: 7 days after second application; for # of Individuals per Leaf: Adults, 3rd Appl. / # of Individuals per Leaf: Eggs, 3rd Appl. / # of Individuals per Leaf: Nymphs, 3rd Appl.: 8 days after third application
# Protocol: (§1) A bioefficacy assay utilizing a foliar spray containing Spirotetramat and pyriproxyfen was conducted on the silverleaf whitefly (Bemisia tabaci) on tomatoes and bell peppers. […] Control was recorded 7 days after first application, 7 days after second application and 8 days after third application. Application rates and results of this assay can be found in Table 8, below.
# [2] = tested on: silverleaf whitefly (Bemisia tabaci); assay: Foliar spray bioefficacy, second assay (2 applications); conditions: recorded 8 days after second application
# Protocol: as §1, with “below. […] Control was recorded 8 days after second application. Application rates and results of this assay can be found in Table 9, below.” for “below.”
# [3] = tested on: silverleaf whitefly (Bemisia tabaci); assay: Foliar spray bioefficacy, third assay (3 applications); conditions: for # of Individuals per Leaf: Adults, 1st Appl. / # of Individuals per Leaf: Eggs, 1st Appl. / # of Individuals per Leaf: Nymphs, 1st Appl.: 7 days after first application; for # of Individuals per Leaf: Adults, 2nd Appl. / # of Individuals per Leaf: Eggs, 2nd Appl. / # of Individuals per Leaf: Nymphs, 2nd Appl.: 7 days after second application; for # of Individuals per Leaf: Adults, 3rd Appl. / # of Individuals per Leaf: Eggs, 3rd Appl. / # of Individuals per Leaf: Nymphs, 3rd Appl.: 8 days after third application
# Protocol: as §1, with “below. […] Control was recorded 7 days after first application, 7 days after second application and 8 days after third application. Application rates and results of this assay can be found in Table 10, below.” for “below.”
# [4] = tested on: Asian citrus psyllid (Diaphorina citri); assay: Foliar spray bioefficacy on Valencia oranges
# Protocol: A bioefficacy assay utilizing a foliar spray containing Spirotetramat and pyriproxyfen was conducted on the Asian citrus psyllid (Diaphorina citri) on Valencia oranges. Spirotetramat and pyriproxyfen were applied concurrently and separately as a foliar spray. Application rates and results of this assay can be found in Table 12, below.
# [5] = tested on: vine mealybug (Pseudococcus maritimus); assay: Foliar spray bioefficacy on table grapes; conditions: Spirotetramat 131 g/HA
# Protocol: A bioefficacy assay utilizing a foliar spray containing Spirotetramat and pyriproxyfen was conducted on the vine mealybug (Pseudococcus maritimus) on table grapes. Spirotetramat and pyriproxyfen were applied concurrently as a foliar spray and spirotetramat was also applied individually. Application rates and results of this assay can be found in Table 11, below.
smiles,measurement,setting,value
"CC(COc1ccc(Oc2ccccc2)cc1)Oc1ccccn1 (racemic) [Pyriproxyfen, 4-Phenoxyphenyl (R/S)-2-(2-pyridyloxy)propyl ether]","# of Individuals per Leaf: Adults, 1st Appl.",[1]; Pyriproxyfen 75.3 g/HA,0.5 per Leaf
same,"# of Individuals per Leaf: Eggs, 1st Appl.",[1]; Pyriproxyfen 75.3 g/HA,0.5 per Leaf
same,"# of Individuals per Leaf: Nymphs, 1st Appl.",[1]; Pyriproxyfen 75.3 g/HA,0.5 per Leaf
same,"# of Individuals per Leaf: Adults, 2nd Appl.",[1]; Pyriproxyfen 75.3 g/HA,1.5 per Leaf
same,"# of Individuals per Leaf: Eggs, 2nd Appl.",[1]; Pyriproxyfen 75.3 g/HA,2.3 per Leaf
same,"# of Individuals per Leaf: Nymphs, 2nd Appl.",[1]; Pyriproxyfen 75.3 g/HA,0.8 per Leaf
same,"# of Individuals per Leaf: Adults, 3rd Appl.",[1]; Pyriproxyfen 75.3 g/HA,1.0 per Leaf
same,"# of Individuals per Leaf: Eggs, 3rd Appl.",[1]; Pyriproxyfen 75.3 g/HA,2.0 per Leaf
same,"# of Individuals per Leaf: Nymphs, 3rd Appl.",[1]; Pyriproxyfen 75.3 g/HA,0.8 per Leaf
same,"# of Individuals per Leaf: Adults, 1st Appl.",[2]; Pyriproxyfen 75.3 g/HA,1.6 per Leaf
same,"# of Individuals per Leaf: Eggs, 1st Appl.",[2]; Pyriproxyfen 75.3 g/HA,27.4 per Leaf
same,"# of Individuals per Leaf: Nymphs, 1st Appl.",[2]; Pyriproxyfen 75.3 g/HA,65.9 per Leaf
same,"# of Individuals per Leaf: Adults, 1st Appl.",[3]; Pyriproxyfen 75.3 g/HA,0.5 per Leaf
same,"# of Individuals per Leaf: Eggs, 1st Appl.",[3]; Pyriproxyfen 75.3 g/HA,0.5 per Leaf
same,"# of Individuals per Leaf: Nymphs, 1st Appl.",[3]; Pyriproxyfen 75.3 g/HA,0.5 per Leaf
same,"# of Individuals per Leaf: Adults, 2nd Appl.",[3]; Pyriproxyfen 75.3 g/HA,1.5 per Leaf
same,"# of Individuals per Leaf: Eggs, 2nd Appl.",[3]; Pyriproxyfen 75.3 g/HA,2.3 per Leaf
same,"# of Individuals per Leaf: Nymphs, 2nd Appl.",[3]; Pyriproxyfen 75.3 g/HA,0.8 per Leaf
same,"# of Individuals per Leaf: Adults, 3rd Appl.",[3]; Pyriproxyfen 75.3 g/HA,1.0 per Leaf
same,"# of Individuals per Leaf: Eggs, 3rd Appl.",[3]; Pyriproxyfen 75.3 g/HA,2.0 per Leaf
same,"# of Individuals per Leaf: Nymphs, 3rd Appl.",[3]; Pyriproxyfen 75.3 g/HA,0.8 per Leaf
same,# of Nymphs,[4]; Pyriproxyfen 127.9 g/HA,14.1
"CCOC(=O)OC1=C(c2cc(C)ccc2C)C(=O)N[C@]12CC[C@@H](OC)CC2 [Spirotetramat, cis-3-(2,5-dimethylphenyl)-8-methoxy-2-oxo-1-azaspiro[4.5]dec-3-en-4-ylethyl carbonate]","# of Individuals per Leaf: Adults, 1st Appl.",[1]; Spirotetramat 87.6 g/HA,3.3 per Leaf
same,"# of Individuals per Leaf: Eggs, 1st Appl.",[1]; Spirotetramat 87.6 g/HA,6.5 per Leaf
same,"# of Individuals per Leaf: Nymphs, 1st Appl.",[1]; Spirotetramat 87.6 g/HA,17.8 per Leaf
same,"# of Individuals per Leaf: Adults, 2nd Appl.",[1]; Spirotetramat 87.6 g/HA,2.0 per Leaf
same,"# of Individuals per Leaf: Eggs, 2nd Appl.",[1]; Spirotetramat 87.6 g/HA,13.8 per Leaf
same,"# of Individuals per Leaf: Nymphs, 2nd Appl.",[1]; Spirotetramat 87.6 g/HA,30.5 per Leaf
same,"# of Individuals per Leaf: Adults, 3rd Appl.",[1]; Spirotetramat 87.6 g/HA,2.0 per Leaf
same,"# of Individuals per Leaf: Eggs, 3rd Appl.",[1]; Spirotetramat 87.6 g/HA,11.0 per Leaf
same,"# of Individuals per Leaf: Nymphs, 3rd Appl.",[1]; Spirotetramat 87.6 g/HA,16.8 per Leaf
same,"# of Individuals per Leaf: Adults, 1st Appl.",[2]; Spirotetramat 87.6 g/HA,2.6 per Leaf
same,"# of Individuals per Leaf: Eggs, 1st Appl.",[2]; Spirotetramat 87.6 g/HA,12.7 per Leaf
same,"# of Individuals per Leaf: Nymphs, 1st Appl.",[2]; Spirotetramat 87.6 g/HA,33.2 per Leaf
same,"# of Individuals per Leaf: Adults, 1st Appl.",[3]; Spirotetramat 87.6 g/HA,3.3 per Leaf
same,"# of Individuals per Leaf: Eggs, 1st Appl.",[3]; Spirotetramat 87.6 g/HA,6.5 per Leaf
same,"# of Individuals per Leaf: Nymphs, 1st Appl.",[3]; Spirotetramat 87.6 g/HA,17.8 per Leaf
same,"# of Individuals per Leaf: Adults, 2nd Appl.",[3]; Spirotetramat 87.6 g/HA,2.0 per Leaf
same,"# of Individuals per Leaf: Eggs, 2nd Appl.",[3]; Spirotetramat 87.6 g/HA,13.8 per Leaf
same,"# of Individuals per Leaf: Nymphs, 2nd Appl.",[3]; Spirotetramat 87.6 g/HA,30.5 per Leaf
same,"# of Individuals per Leaf: Adults, 3rd Appl.",[3]; Spirotetramat 87.6 g/HA,2.0 per Leaf
same,"# of Individuals per Leaf: Eggs, 3rd Appl.",[3]; Spirotetramat 87.6 g/HA,11.0 per Leaf
same,"# of Individuals per Leaf: Nymphs, 3rd Appl.",[3]; Spirotetramat 87.6 g/HA,16.8 per Leaf
same,% bunches infested,[5],6.8%
same,# of Nymphs,[4]; Spirotetramat 163.7 g/HA,8.6

# From patent US11690379B2, “Aqueous insecticidal composition and methods of use thereof” (priority 2020, dated 2023)
